Tests used:
PSMA = PSMA (Homo sapiens, UniProt Q04609); test: Measurement of binding capacity: competition with [^125I]30 on 22RV1 cells; parameters: host or cells: 22RV1 human prostate cancer cells; conditions: for IC50 / Ki / binding force / binding capacity to PSMA, in words: 22RV1 cells; for IC50 / Ki: [^125I]30 0.1 nM, 37° C., 2 hours; for IC50: read-out: IC50; for Ki: read-out: Ki value
Description: To confirm the binding capacity of the compounds of the present invention to PSMA, the following experiment was performed.
RPMI1640 supplemented with 1% BSA (bovine serum albumin) was used as a buffer solution.
[^125I]30 (0.1 nM) obtained in Comparative Example 1 was added to a vessel containing 22RV1 cells (5×10^4), to which the compound represented by formula 1 was loaded at 9 concentrations (1.00×10^−4˜1.00×10^−12 M), followed by stirring at 37° C. for 2 hours. Upon completion of the stirring, the vessel was washed with PBS solution (2 mL) three times, and then the radioactivity was measured using a gamma counter (2480 WIZARD2 Gamma Counter PerkinElmer Co., MA). The 50% inhibition concentration (IC50) for each compound was calculated using a GraphPad Prism program (GraphPad Software, Inc., CA)
(Maresca, K. P. et al., 2009, J. Med. Chem. 52, 347-357)

[1] = Measurement of lipophilicity (log P), n-octanol/PBS; assay type: physicochemical; conditions: mean of 3
Description: Each of the [^68Ga]1 compounds (1˜2 mci) synthesized in Example 14 was transferred into a vial, and the solvent was removed, to which 1 mL of n-octanol and 1 mL of PBS were added, and the lid was well closed, followed by mixing with a vortex for 1 minute. After the layers were separated, 0.1 mL was taken from each layer and the radiation dose was measured. The radiation dose was measured by repeating 3 times, and the mean value was obtained.

PSMA, sequence (Q04609 whole entry): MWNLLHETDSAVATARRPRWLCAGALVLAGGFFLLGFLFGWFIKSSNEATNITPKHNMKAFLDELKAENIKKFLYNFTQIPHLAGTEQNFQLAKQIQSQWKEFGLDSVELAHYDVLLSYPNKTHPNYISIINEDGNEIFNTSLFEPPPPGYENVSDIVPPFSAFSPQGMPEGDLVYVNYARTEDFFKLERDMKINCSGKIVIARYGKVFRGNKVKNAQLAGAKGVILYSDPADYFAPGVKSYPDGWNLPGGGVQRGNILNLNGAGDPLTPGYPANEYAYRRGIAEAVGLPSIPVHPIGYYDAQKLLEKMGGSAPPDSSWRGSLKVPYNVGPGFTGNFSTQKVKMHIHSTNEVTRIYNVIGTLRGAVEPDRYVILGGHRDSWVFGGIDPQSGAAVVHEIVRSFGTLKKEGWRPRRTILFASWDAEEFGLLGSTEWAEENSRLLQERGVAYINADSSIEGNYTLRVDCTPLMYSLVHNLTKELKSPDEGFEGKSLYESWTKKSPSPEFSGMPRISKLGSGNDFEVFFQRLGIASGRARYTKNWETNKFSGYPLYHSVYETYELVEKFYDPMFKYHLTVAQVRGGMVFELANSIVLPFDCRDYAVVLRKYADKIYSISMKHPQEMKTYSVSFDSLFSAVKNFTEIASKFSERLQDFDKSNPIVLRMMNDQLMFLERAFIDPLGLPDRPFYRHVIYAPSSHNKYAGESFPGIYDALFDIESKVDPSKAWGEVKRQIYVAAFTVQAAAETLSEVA

SMILES	IC50 (PSMA)	Ki (PSMA)	logP [1]	binding force to PSMA, times higher than that of Ga-1a (PSMA; compared with Ga-1a)	binding force / binding capacity to PSMA, in words (PSMA)
O=C(O)CC[C@H](NC(=O)N[C@@H](CCCCNC(=O)NCc1cn(CCOCCNC(=O)CN2CCN3CCN4CCN(CC2)CC(=O)[O][Ga]([O]C(=O)C3)[O]C(=O)C4)nn1)C(=O)O)C(=O)O [Ga-1a]	571 ± 136 nM	69.9 ± 29.8 nM	–	about 18.6 times	relatively low binding force to PSMA
O=C(O)CCC(NC(=O)NC(CCC(=O)N(CC(=O)O)Cc1cn(CCOCCNC(=O)CN2CCN3CCN4CCN(CC2)CC(=O)[O][Ga]([O]C(=O)C3)[O]C(=O)C4)nn1)C(=O)O)C(=O)O (stereo not shown) [Ga-1p]	703 ± 145 nM	130 ± 26.6 nM	–	–	–
O=C(O)CC[C@H](NC(=O)N[C@@H](CCCCN(CC(=O)O)C(=O)CCc1cn(CCOCCNC(=O)CN2CCN3CCN4CCN(CC2)CC(=O)[O][Ga]([O]C(=O)C3)[O]C(=O)C4)nn1)C(=O)O)C(=O)O [Ga-1c]	21.2 ± 2.06 nM	3.76 ± 0.37 nM	–	–	–

Continued, in another order:

IC50 (PSMA)	Ki (PSMA)	logP [1]	binding force to PSMA, times higher than that of Ga-1a (PSMA; compared with Ga-1a)	SMILES	binding force / binding capacity to PSMA, in words (PSMA)
174 ± 3.87 nM	32.1 ± 0.71 nM	–	–	O=C(O)CC[C@H](NC(=O)N[C@@H](CCC(=O)N(CCOCCOCCNC(=O)CN1CCN2CCN3CCN(CC1)CC(=O)[O][Ga]([O]C(=O)C2)[O]C(=O)C3)CC(=O)O)C(=O)O)C(=O)O [Ga-1n]	–
–	–	−3.06	–	O=C(O)CC[C@H](NC(=O)N[C@@H](CCC(=O)N(CCOCCOCCNC(=O)CN1CCN2CCN3CCN(CC1)CC(=O)[O][68Ga]([O]C(=O)C2)[O]C(=O)C3)CC(=O)O)C(=O)O)C(=O)O [[^68Ga]1n]	–
75.3 ± 18.6 nM	18.6 ± 4.6 nM	–	–	O=C(O)CC[C@H](NC(=O)N[C@@H](CCCCN(CCC(=O)O)C(=O)CCc1cn(CCOCCNC(=O)CN2CCN3CCN4CCN(CC2)CC(=O)[O][Ga]([O]C(=O)C3)[O]C(=O)C4)nn1)C(=O)O)C(=O)O [Ga-1d]	–
18.4 ± 0.35 nM	5.82 ± 0.11 nM	–	–	Cc1ccc(CCCC(=O)NCCCC[C@H](NC(=O)CN2CCN3CCN4CCN(CC2)CC(=O)[O][Ga]([O]C(=O)C3)[O]C(=O)C4)C(=O)NCCOCCOCC(=O)N(CCCC[C@H](NC(=O)N[C@@H](CCC(=O)O)C(=O)O)C(=O)O)CC(=O)O)cc1 [Ga-1g]	higher binding capacity than the compound Ga-1e
